Test results taken from ChEMBL document CHEMBL1134487, “Design, synthesis, and biological evaluation of analogues of the antitumor agent, 2-(4-[(7-chloro-2-quinoxalinyl)oxy]phenoxy)propionic acid (XK469)” (2001).
Activity calls are given as the source filed them. The rule behind the calls is not given here.

How the values were obtained:
[1] = test system: Mus musculus; assay: In vivo activity tested against C3H mice bearing colon adenocarcinoma -38(colon-38) tumor measured as % treated/control calculated at 1433 mg/kg (po); assay type: functional
[2] = test system: Mus musculus; assay: In vivo activity tested against C3H mice bearing colon adenocarcinoma -38(colon-38) tumor measured as activity rating at 1433 mg/kg (po); assay type: functional
[3] = test system: Mus musculus; assay: In vivo activity tested against C3H mice bearing colon adenocarcinoma -38(colon-38) tumor measured as log Kill value was based on tumors that grew at 1433 mg/kg (po); assay type: functional, organism-based; set-up: dose 1433 mg/kg
[4] = test system: Mus musculus; assay: In vivo activity tested against C3H mice bearing colon adenocarcinoma -38(colon-38) tumor measured as body weight loss at 1433 mg/kg (po); assay type: functional
[5] = test system: Mus musculus; assay: In vivo activity tested against C3H mice bearing colon adenocarcinoma -38(colon-38) tumor measured as % treated/control calculated at 585 mg/kg (po); assay type: functional
[6] = test system: Mus musculus; assay: In vivo activity tested against C3H mice bearing mammary adenocarcinoma -16c/ADR tumor measured as body weight loss at 582 mg/kg (po); assay type: functional
[7] = test system: Mus musculus; assay: In vivo activity tested against C3H mice bearing mammary adenocarcinoma -16c/ADR tumor measured as log Kill value was based on tumors that grew at 582 mg/kg (po); assay type: functional, organism-based; set-up: dose 582 mg/kg
[8] = test system: Mus musculus; assay: In vivo activity tested against C3H mice bearing colon adenocarcinoma -38(colon-38) tumor measured as log Kill value was based on tumors that grew at 195 mg/kg (po); assay type: functional, organism-based; set-up: dose 195 mg/kg
[9] = test system: Mus musculus; assay: In vivo activity tested against C3H mice bearing mammary adenocarcinoma -16c/ADR tumor measured as % treated/control calculated at 582 mg/kg (po); assay type: functional
[10] = test system: Mus musculus; assay: In vivo activity tested against C3H mice bearing mammary adenocarcinoma -16c/ADR tumor measured as body weight loss at 455 mg/kg (po); assay type: functional
[11] = test system: Mus musculus; assay: In vivo activity tested against C3H mice bearing mammary adenocarcinoma -16c/ADR tumor measured as log Kill value was based on tumors that grew at 455 mg/kg (po); assay type: functional, organism-based; set-up: dose 455 mg/kg
[12] = test system: Mus musculus; assay: In vivo activity tested against C3H mice bearing mammary adenocarcinoma -17/ADR tumor measured as log Kill value was based on tumors that grew at 679 mg/kg (po); assay type: functional, organism-based; set-up: dose 679 mg/kg
[13] = test system: Mus musculus; assay: In vivo activity tested against C3H mice bearing colon adenocarcinoma -38(colon-38) tumor measured as body weight loss at 585 mg/kg (po); assay type: functional
[14] = test system: Mus musculus; assay: In vivo activity tested against C3H mice bearing colon adenocarcinoma -38(colon-38) tumor measured as % treated/control calculated at 195 mg/kg (po); assay type: functional
[15] = test system: Mus musculus; assay: In vivo activity tested against C3H mice bearing colon adenocarcinoma -38(colon-38) tumor measured as log Kill value was based on tumors that grew at 585 mg/kg (po); assay type: functional, organism-based; set-up: dose 585 mg/kg
[16] = test system: Mus musculus; assay: In vivo activity tested against C3H mice bearing mammary adenocarcinoma -17/ADR tumor measured as log Kill value was based on tumors that grew at 407.4 mg/kg (po); assay type: functional, organism-based; set-up: dose 407.4 mg/kg
[17] = test system: Mus musculus; assay: In vivo activity tested against C3H mice bearing colon adenocarcinoma -38(colon-38) tumor measured as body weight loss at 195 mg/kg (po); assay type: functional
[18] = test system: Mus musculus; assay: In vivo activity tested against C3H mice bearing mammary adenocarcinoma -16c/ADR tumor measured as % treated/control calculated at 455 mg/kg (po); assay type: functional
[19] = test system: Mus musculus; assay: In vivo activity tested against C3H mice bearing mammary adenocarcinoma -17/ADR tumor measured as body weight loss at 679 mg/kg (po); assay type: functional
[20] = test system: Mus musculus; assay: In vivo activity tested against C3H mice bearing mammary adenocarcinoma -17/ADR tumor measured as % treated/control calculated at 407.4 mg/kg (po); assay type: functional
[21] = test system: Mus musculus; assay: In vivo activity tested against C3H mice bearing mammary adenocarcinoma -17/ADR tumor measured as body weight loss at 407.4 mg/kg (po); assay type: functional
[22] = test system: Mus musculus; assay: In vivo activity tested against C3H mice bearing mammary adenocarcinoma -17/ADR tumor measured as % treated/control calculated at 679 mg/kg (po); assay type: functional
[23] = test system: Mus musculus; assay: In vivo activity tested against C3H mice bearing colon adenocarcinoma -38(colon-38) tumor measured as log Kill value was based on tumors that grew at 769 mg/kg (po); assay type: functional, organism-based; set-up: dose 769 mg/kg
[24] = test system: Mus musculus; assay: In vivo activity tested against C3H mice bearing colon adenocarcinoma -38(colon-38) tumor measured as body weight loss at 769 mg/kg (po); assay type: functional
[25] = test system: Mus musculus; assay: In vivo activity tested against C3H mice bearing colon adenocarcinoma -38(colon-38) tumor measured as activity rating at 769 mg/kg (po); assay type: functional
[26] = test system: Mus musculus; assay: In vivo activity tested against C3H mice bearing colon adenocarcinoma -38(colon-38) tumor measured as % treated/control calculated at 769 mg/kg (po); assay type: functional
[27] = test system: Mus musculus; assay: In vivo activity tested against C3H mice bearing colon adenocarcinoma -38(colon-38) tumor measured as activity rating at 495 mg/kg (po); assay type: functional
[28] = test system: Mus musculus; assay: In vivo activity tested against C3H mice bearing colon adenocarcinoma -38(colon-38) tumor measured as body weight loss at 495 mg/kg (po); assay type: functional
[29] = test system: Mus musculus; assay: In vivo activity tested against C3H mice bearing colon adenocarcinoma -38(colon-38) tumor measured as % treated/control calculated at 495 mg/kg (po); assay type: functional
[30] = test system: Mus musculus; assay: In vivo activity tested against C3H mice bearing colon adenocarcinoma -38(colon-38) tumor measured as log Kill value was based on tumors that grew at 495 mg/kg (po); assay type: functional, organism-based; set-up: dose 495 mg/kg
[31] = test system: Mus musculus; assay: In vivo activity tested against C3H mice bearing colon adenocarcinoma -38(colon-38) tumor, measured as cures at 495 mg/kg (po); 3/5 cures; assay type: functional
[32] = test system: Mus musculus; assay: In vivo activity tested against C3H mice bearing mammary adenocarcinoma -17/ADR tumor measured as % treated/control calculated at 162 mg/kg (po); assay type: functional
[33] = test system: Mus musculus; assay: In vivo activity tested against C3H mice bearing mammary adenocarcinoma -17/ADR tumor measured as % treated/control calculated at 99 mg/kg (po); assay type: functional
[34] = test system: Mus musculus; assay: In vivo activity tested against C3H mice bearing panc-03 murine tumor measured as log Kill value was based on tumors that grew at 324 mg/kg (po); assay type: functional, organism-based; set-up: dose 324 mg/kg
[35] = test system: Mus musculus; assay: In vivo activity tested against C3H mice bearing mammary adenocarcinoma -16c/ADR tumor measured as body weight loss at 164 mg/kg (po); assay type: functional
[36] = test system: Mus musculus; assay: In vivo activity tested against C3H mice bearing panc-03 murine tumor measured as % treated/control calculated at 180 mg/kg (po); assay type: functional
[37] = test system: Mus musculus; assay: In vivo activity tested against C3H mice bearing mammary adenocarcinoma -17/ADR tumor measured as log Kill value was based on tumors that grew at 162 mg/kg (po); assay type: functional, organism-based; set-up: dose 162 mg/kg
[38] = test system: Mus musculus; assay: In vivo activity tested against C3H mice bearing panc-03 murine tumor measured as % treated/control calculated at 324 mg/kg (po); assay type: functional
[39] = test system: Mus musculus; assay: In vivo activity tested against C3H mice bearing mammary adenocarcinoma -16c/ADR tumor measured as log Kill value was based on tumors that grew at 164 mg/kg (po); assay type: functional, organism-based; set-up: dose 164 mg/kg
[40] = test system: Mus musculus; assay: In vivo activity tested against C3H mice bearing panc-03 murine tumor measured as log Kill value was based on tumors that grew at 180 mg/kg (po); assay type: functional, organism-based; set-up: dose 180 mg/kg
[41] = test system: Mus musculus; assay: In vivo activity tested against C3H mice bearing mammary adenocarcinoma -16c/ADR tumor measured as % treated/control calculated at 164 mg/kg (po); assay type: functional
[42] = test system: Mus musculus; assay: In vivo activity tested against C3H mice bearing mammary adenocarcinoma -17/ADR tumor measured as log Kill value was based on tumors that grew at 99 mg/kg (po); assay type: functional, organism-based; set-up: dose 99 mg/kg
[43] = test system: Mus musculus; assay: In vivo activity tested against C3H mice bearing mammary adenocarcinoma -17/ADR tumor measured as body weight loss at 162 mg/kg (po); assay type: functional
[44] = test system: Mus musculus; assay: In vivo activity tested against C3H mice bearing mammary adenocarcinoma -17/ADR tumor measured as body weight loss at 99 mg/kg (po); assay type: functional
[45] = test system: Mus musculus; assay: In vivo activity tested against C3H mice bearing panc-03 murine tumor measured as body weight loss at 180 mg/kg (po); assay type: functional
[46] = test system: Mus musculus; assay: In vivo activity tested against C3H mice bearing panc-03 murine tumor measured as body weight loss at 324 mg/kg (po); assay type: functional
[47] = test system: Mus musculus; assay: In vivo activity tested against C3H mice bearing colon adenocarcinoma -38(colon-38) tumor measured as body weight loss at 2770 mg/kg (po); assay type: functional
[48] = test system: Mus musculus; assay: In vivo activity tested against C3H mice bearing colon adenocarcinoma -38(colon-38) tumor measured as % treated/control calculated at 2770 mg/kg (po); assay type: functional
[49] = test system: Mus musculus; assay: In vivo activity tested against C3H mice bearing colon adenocarcinoma -38(colon-38) tumor measured as activity rating at 2770 mg/kg (po); assay type: functional
[50] = test system: Mus musculus; assay: In vivo activity tested against C3H mice bearing colon adenocarcinoma -38(colon-38) tumor measured as log Kill value was based on tumors that grew at 2770 mg/kg (po); None; assay type: functional, organism-based; set-up: dose 2770 mg/kg

COC(=O)C(C)Oc1ccc(Oc2cnc3ccc(F)cc3n2)cc1 (stereo not given)
T/C [1]: 34%
Activity rating [2]: 1.2
Log kill [3]: 0.8
Body weight loss [4]: 1%

COc1ccc2ncc(Oc3ccc(OC(C)C(=O)O)cc3)nc2c1 (stereo not given)
T/C [5]: 23%
Body weight loss [6]: -13.6%
Log kill [7]: 2.7
Log kill [8]: 0.12
T/C [9]: 0%
Body weight loss [10]: -1.2%
Log kill [11]: 2.1
Log kill [12]: 3
Body weight loss [13]: 0%
T/C [14]: 90%
Log kill [15]: 1.73
Log kill [16]: 1.7
Body weight loss [17]: 0%
T/C [18]: 8%
Body weight loss [19]: -4.6%
T/C [20]: 6.4%
Body weight loss [21]: 0%
T/C [22]: 4.6%

CC(Oc1ccc(Oc2cnc3cc(F)ccc3n2)cc1)C(=O)O (stereo not given)
Log kill [23]: 0.9
Body weight loss [24]: 1%
Activity rating [25]: 1.2
T/C [26]: 34%

COC(=O)C(C)Oc1ccc(Oc2cnc3ccc(Cl)cc3n2)cc1 (stereo not given)
Activity rating [27]: >2.8
Body weight loss [28]: 0%
T/C [29]: 0%
Log kill [30]: 3.5
Cures [31]: 3

COc1c(Cl)ccc2ncc(Oc3ccc(OC(C)C(=O)O)cc3)nc12 (stereo not given)
T/C [32]: 7%
T/C [33]: 13%
Log kill [34]: 3
Body weight loss [35]: -6.2%
T/C [36]: 33%
Log kill [37]: 1.5
T/C [38]: 0%
Log kill [39]: 1.7
Log kill [40]: 0.64
T/C [41]: 7.5%
Log kill [42]: 1.2
Body weight loss [43]: -16.4%
Body weight loss [44]: -1.5%
Body weight loss [45]: 5%
Body weight loss [46]: -15%

COC(=O)C(C)Oc1ccc(Oc2cnc3cc(Cl)ccc3n2)cc1 (stereo not given)
Body weight loss [47]: 0%
T/C [48]: >100%
Activity rating [49]: <0.7
Log kill [50]: inactive
